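Cultured in 96-well plates, cells were exposed to test compound for 48 hours across five concentrations. GI50: concentration for 50% inhibition of growth.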 Calls of active or inactive are those of the source. Rule as the data show it: active = GI50 up to about 1.1 µM and inactive = higher.
Columns and labels:
Experiment in all cases: growth of human tumour cells (NCI), 48 h
MDA-MB-435 = test system: MDA-MB-435
KM12 = test system: KM12
NCI-H460 = test system: NCI-H460
EKVX = test system: EKVX
DU-145 = test system: DU-145
SNB-19 = test system: SNB-19
MDA-N = test system: MDA-N
SK-MEL-2 = test system: SK-MEL-2
A549 = test system: A549
UACC-62 = test system: UACC-62
TK-10 = test system: TK-10
SF-295 = test system: SF-295
NCI-H23 = test system: NCI-H23
SK-MEL-28 = test system: SK-MEL-28
SN12C = test system: SN12C
SF-539 = test system: SF-539
RXF 393 = test system: RXF 393
MDA-MB-231 = test system: MDA-MB-231
CCRF-CEM = test system: CCRF-CEM
HL-60 = test system: HL-60

Structure (SMILES)	GI50 (MDA-MB-435)	GI50 (KM12)	GI50 (NCI-H460)	GI50 (EKVX)	GI50 (DU-145)	GI50 (SNB-19)	GI50 (MDA-N)	GI50 (SK-MEL-2)	GI50 (A549)	GI50 (UACC-62)	GI50 (TK-10)	GI50 (SF-295)	GI50 (NCI-H23)	GI50 (SK-MEL-28)	GI50 (SN12C)	GI50 (SF-539)	GI50 (RXF 393)	GI50 (MDA-MB-231)	GI50 (CCRF-CEM)	GI50 (HL-60)
O=[N+]([O-])c1ccc(N2CCC(CCCC3CCN(c4ccc([N+](=O)[O-])cc4[N+](=O)[O-])CC3)CC2)c([N+](=O)[O-])c1	13.9 µM (inactive)	16.7 µM (inactive)	14.3 µM (inactive)	15.8 µM (inactive)	21.7 µM (inactive)	16.1 µM (inactive)	16.1 µM (inactive)	16.9 µM (inactive)	16.4 µM (inactive)	11.9 µM (inactive)	16.9 µM (inactive)	17.4 µM (inactive)	21.2 µM (inactive)	12.7 µM (inactive)	32.1 µM (inactive)	18.4 µM (inactive)	15.3 µM (inactive)	18.7 µM (inactive)	13.7 µM (inactive)	15.4 µM (inactive)
Cc1ccc2ccc(O)cc2c1	19 µM (inactive)	28.4 µM (inactive)	89.1 µM (inactive)	43.4 µM (inactive)	91.6 µM (inactive)	> 100 µM (inactive)	20.1 µM (inactive)	38.1 µM (inactive)	72.4 µM (inactive)	43.6 µM (inactive)	> 100 µM (inactive)	39.4 µM (inactive)	37.8 µM (inactive)	> 100 µM (inactive)	94.6 µM (inactive)	38.4 µM (inactive)	44.9 µM (inactive)	30 µM (inactive)	23.9 µM (inactive)	18.5 µM (inactive)
O=Cc1cc2c(o1)C(=O)c1ccccc1C2=O	0.197 µM (active)	1.07 µM (active)	0.794 µM (active)	2.58 µM (inactive)	0.212 µM (active)	0.656 µM (active)	0.192 µM (active)	0.601 µM (active)	1.32 µM (inactive)	1.78 µM (inactive)	2.7 µM (inactive)	0.367 µM (active)	0.191 µM (active)	0.405 µM (active)	0.279 µM (active)	0.427 µM (active)	1.35 µM (inactive)	3.07 µM (inactive)	2.09 µM (inactive)	0.286 µM (active)
CO/C=C(/C(=O)OC)c1ccccc1COc1cccc(C(F)(F)F)c1	1.01 µM (active)	11.3 µM (inactive)	1.22 µM (inactive)	3.56 µM (inactive)	11.6 µM (inactive)	22.1 µM (inactive)	2.54 µM (inactive)	11.6 µM (inactive)	2.91 µM (inactive)	0.638 µM (active)	3.18 µM (inactive)	3.3 µM (inactive)	2.26 µM (inactive)	22.6 µM (inactive)	8.28 µM (inactive)	4.97 µM (inactive)	11.6 µM (inactive)	7.89 µM (inactive)	0.489 µM (active)	< 0.01 µM (active)
CCN(CC)CCCn1c(=O)c2ccccc2n2c3c(=O)n(C)c(=O)n(C)c3nc12	14.2 µM (inactive)	4.63 µM (inactive)	0.355 µM (active)	15 µM (inactive)	1.57 µM (inactive)	4.88 µM (inactive)	14.2 µM (inactive)	18.3 µM (inactive)	0.959 µM (active)	4.3 µM (inactive)	15.8 µM (inactive)	3.43 µM (inactive)	4.67 µM (inactive)	15.7 µM (inactive)	2.85 µM (inactive)	7.73 µM (inactive)	16 µM (inactive)	13.8 µM (inactive)	3.03 µM (inactive)	1.58 µM (inactive)
O=C1Nc2cccc(Cl)c2/C1=C\c1c(Cl)nc2n1CCS2	35.1 µM (inactive)	> 100 µM (inactive)	> 100 µM (inactive)	84.7 µM (inactive)	> 100 µM (inactive)	> 100 µM (inactive)	45.6 µM (inactive)	> 100 µM (inactive)	> 100 µM (inactive)	73.5 µM (inactive)	60.7 µM (inactive)	> 100 µM (inactive)	> 100 µM (inactive)	> 100 µM (inactive)	> 100 µM (inactive)	89.1 µM (inactive)	53.2 µM (inactive)	> 100 µM (inactive)	> 100 µM (inactive)	> 100 µM (inactive)
COP(=O)(OC)/C(=C/c1cn(C(c2ccccc2)(c2ccccc2)c2ccccc2)cn1)NC=O	18.1 µM (inactive)	32.9 µM (inactive)	16.4 µM (inactive)	22 µM (inactive)	21.6 µM (inactive)	35 µM (inactive)	19.2 µM (inactive)	16.9 µM (inactive)	23.4 µM (inactive)	18.7 µM (inactive)	22.5 µM (inactive)	13.8 µM (inactive)	19.5 µM (inactive)	33.4 µM (inactive)	19.2 µM (inactive)	14.4 µM (inactive)	16.3 µM (inactive)	16.2 µM (inactive)	24.8 µM (inactive)	> 100 µM (inactive)
CNC1C(O)CC(OC2C/C=C(\C)C/C(C)=C/C=C/CCC(C)CNC(=O)/C=C/C=C/C2C)OC1C (stereo not given)	0.377 µM (active)	0.432 µM (active)	0.173 µM (active)	1.6 µM (inactive)	0.719 µM (active)	2.84 µM (inactive)	0.34 µM (active)	1.19 µM (inactive)	0.504 µM (active)	0.44 µM (active)	1.1 µM (active)	0.25 µM (active)	0.863 µM (active)	0.667 µM (active)	0.82 µM (active)	0.918 µM (active)	1.08 µM (active)	0.841 µM (active)	0.153 µM (active)	0.153 µM (active)
N#CCCN(CCC#N)c1ccc(/C=C2\SC(=S)NC2=O)cc1Br	> 100 µM (inactive)	66.7 µM (inactive)	> 100 µM (inactive)	46.9 µM (inactive)	> 100 µM (inactive)	23.8 µM (inactive)	> 100 µM (inactive)	> 100 µM (inactive)	> 100 µM (inactive)	> 100 µM (inactive)	> 100 µM (inactive)	27.9 µM (inactive)	> 100 µM (inactive)	> 100 µM (inactive)	> 100 µM (inactive)	> 100 µM (inactive)	86.3 µM (inactive)	25.9 µM (inactive)	> 100 µM (inactive)	79.8 µM (inactive)
C=CCN(CC=C)Cn1c(=S)sc2ccccc21	> 100 µM (inactive)	> 100 µM (inactive)	82.8 µM (inactive)	> 100 µM (inactive)	> 100 µM (inactive)	> 100 µM (inactive)	> 100 µM (inactive)	> 100 µM (inactive)	> 100 µM (inactive)	55.1 µM (inactive)	> 100 µM (inactive)	> 100 µM (inactive)	> 100 µM (inactive)	37.5 µM (inactive)	> 100 µM (inactive)	55.6 µM (inactive)	> 100 µM (inactive)	54.3 µM (inactive)	22.2 µM (inactive)	16.5 µM (inactive)
Cc1cccc2nc3cccc(C(=O)NCCC[N+](C)(CCCNC(=O)c4cccc5nc6cccc(C)c6nc45)Cc4c([N+](=O)[O-])ncn4C)c3nc12	5.13 µM (inactive)	0.0912 µM (active)	0.0632 µM (active)	1.79 µM (inactive)	0.881 µM (active)	> 1100 µM (inactive)	0.293 µM (active)	6.95 µM (inactive)	0.189 µM (active)	0.853 µM (active)	43.9 µM (inactive)	1.35 µM (inactive)	1.53 µM (inactive)	1.07 µM (active)	0.378 µM (active)	0.41 µM (active)	4.01 µM (inactive)	38.3 µM (inactive)	47 µM (inactive)	0.199 µM (active)
CCN(CC)C(=S)/N=C(\SC(=S)N(CC)CC)c1ccccc1	> 59 µM (inactive)	7.96 µM (inactive)	6.1 µM (inactive)	38.5 µM (inactive)	27.9 µM (inactive)	> 94.8 µM (inactive)	15.7 µM (inactive)	30.7 µM (inactive)	20.8 µM (inactive)	39.6 µM (inactive)	> 89.5 µM (inactive)	42.6 µM (inactive)	36.9 µM (inactive)	57 µM (inactive)	48.6 µM (inactive)	51.4 µM (inactive)	> 49.3 µM (inactive)	5.65 µM (inactive)	0.787 µM (active)	1.27 µM (inactive)
COc1cc2c(cc1C)NC(=O)/C2=C/c1c(Cl)[nH]c2ccccc12	1.62 µM (inactive)	3.1 µM (inactive)	3.92 µM (inactive)	6.68 µM (inactive)	13.3 µM (inactive)	4.5 µM (inactive)	1.63 µM (inactive)	2.8 µM (inactive)	6.05 µM (inactive)	3.57 µM (inactive)	10.4 µM (inactive)	1.77 µM (inactive)	10.1 µM (inactive)	7 µM (inactive)	5.3 µM (inactive)	1.3 µM (inactive)	8.07 µM (inactive)	3.95 µM (inactive)	3.56 µM (inactive)	2.39 µM (inactive)
COc1ccc(NC(=O)CC(=O)n2nc(C)c(/N=N/c3cccc(C)c3)c2C)cc1	> 100 µM (inactive)	> 100 µM (inactive)	> 100 µM (inactive)	31.4 µM (inactive)	> 100 µM (inactive)	> 100 µM (inactive)	> 100 µM (inactive)	> 100 µM (inactive)	> 100 µM (inactive)	> 100 µM (inactive)	> 100 µM (inactive)	> 100 µM (inactive)	> 100 µM (inactive)	> 100 µM (inactive)	> 100 µM (inactive)	> 100 µM (inactive)	> 100 µM (inactive)	> 100 µM (inactive)	> 100 µM (inactive)	> 100 µM (inactive)

Reference: ChEMBL document CHEMBL1201862, “PubChem BioAssay data set” (2004)
